Experiments:
Assay in all cases: Kinase assay, binding constants (Kd), kinase-tagged T7 phage, qPCR
FGFR1 = FGFR1 (Homo sapiens (Human), UniProt P11362)
Procedure: (§1) Kinase-tagged T7 phage strains were prepared in an E. coli host derived from the BL21 strain. E. coli were grown to log-phase and infected with T7 phage and incubated with shaking at 32° C. until lysis. The lysates were centrifuged and filtered to remove cell debris. Streptavidin-coated magnetic beads were treated with biotinylated small molecule ligands for 30 minutes at room temperature to generate affinity resins for kinase assays. The liganded beads were blocked with excess biotin and washed with blocking buffer SeaBlock (Pierce), […], 1 mM DTT to remove unbound ligand and to reduce non-specific binding.
(§2) Test compounds were prepared as 111λ stocks in 10000 DMS0. Kds were determined using an 11-point 3-fold compound dilution series with three DMSO control points. […] The compounds were then diluted directly into the assays such that the final concentration of DMSO was 0.9%. All reactions performed in polypropylene 384-well plate. Each was a final volume of 0.02 ml. […] The beads were then re-suspended in elution buffer (1×PBS, 0.05% Tween […] non-biotinylated affinity ligand) and incubated at room temperature with shaking for 30 minutes. The kinase concentration in the eluates was measured by qPCR.
(§3) Binding constants were calculated with a standard dose-response curve using the Hill equation: […]
(§4) The Hill Slope was set to −1. Curves were fitted using a non-linear least square fit with the Levenberg-Marquardt algorithm.

FGFR2 = FGFR2 (Homo sapiens (Human), UniProt P21802)
Sequence of FGFR2 (P21802 22-821): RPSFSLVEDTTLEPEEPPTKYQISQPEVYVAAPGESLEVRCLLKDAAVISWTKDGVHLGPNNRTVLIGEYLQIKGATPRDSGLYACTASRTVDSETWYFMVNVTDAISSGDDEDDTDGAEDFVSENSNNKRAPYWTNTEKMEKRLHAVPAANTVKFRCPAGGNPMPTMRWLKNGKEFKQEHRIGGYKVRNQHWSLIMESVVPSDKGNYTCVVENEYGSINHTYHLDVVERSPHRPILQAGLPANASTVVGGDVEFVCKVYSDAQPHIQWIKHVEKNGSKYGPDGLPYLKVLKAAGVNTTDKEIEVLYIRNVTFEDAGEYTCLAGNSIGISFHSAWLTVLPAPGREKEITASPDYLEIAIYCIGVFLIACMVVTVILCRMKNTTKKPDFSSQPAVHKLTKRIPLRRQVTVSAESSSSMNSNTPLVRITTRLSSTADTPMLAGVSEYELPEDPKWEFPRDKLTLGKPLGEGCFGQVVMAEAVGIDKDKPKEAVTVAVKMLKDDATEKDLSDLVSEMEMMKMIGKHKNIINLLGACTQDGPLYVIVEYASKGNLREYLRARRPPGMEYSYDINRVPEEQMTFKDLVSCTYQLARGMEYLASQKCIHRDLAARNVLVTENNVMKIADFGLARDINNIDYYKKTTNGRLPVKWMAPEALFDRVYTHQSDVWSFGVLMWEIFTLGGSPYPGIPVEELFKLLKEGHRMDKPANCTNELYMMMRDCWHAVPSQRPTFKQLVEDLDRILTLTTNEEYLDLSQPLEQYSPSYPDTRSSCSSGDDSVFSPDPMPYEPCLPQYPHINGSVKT
Procedure: as §1, §2, §3, §4

FGFR4 = FGFR4 (Homo sapiens (Human), UniProt P22455)
Sequence of FGFR4 (P22455 22-802): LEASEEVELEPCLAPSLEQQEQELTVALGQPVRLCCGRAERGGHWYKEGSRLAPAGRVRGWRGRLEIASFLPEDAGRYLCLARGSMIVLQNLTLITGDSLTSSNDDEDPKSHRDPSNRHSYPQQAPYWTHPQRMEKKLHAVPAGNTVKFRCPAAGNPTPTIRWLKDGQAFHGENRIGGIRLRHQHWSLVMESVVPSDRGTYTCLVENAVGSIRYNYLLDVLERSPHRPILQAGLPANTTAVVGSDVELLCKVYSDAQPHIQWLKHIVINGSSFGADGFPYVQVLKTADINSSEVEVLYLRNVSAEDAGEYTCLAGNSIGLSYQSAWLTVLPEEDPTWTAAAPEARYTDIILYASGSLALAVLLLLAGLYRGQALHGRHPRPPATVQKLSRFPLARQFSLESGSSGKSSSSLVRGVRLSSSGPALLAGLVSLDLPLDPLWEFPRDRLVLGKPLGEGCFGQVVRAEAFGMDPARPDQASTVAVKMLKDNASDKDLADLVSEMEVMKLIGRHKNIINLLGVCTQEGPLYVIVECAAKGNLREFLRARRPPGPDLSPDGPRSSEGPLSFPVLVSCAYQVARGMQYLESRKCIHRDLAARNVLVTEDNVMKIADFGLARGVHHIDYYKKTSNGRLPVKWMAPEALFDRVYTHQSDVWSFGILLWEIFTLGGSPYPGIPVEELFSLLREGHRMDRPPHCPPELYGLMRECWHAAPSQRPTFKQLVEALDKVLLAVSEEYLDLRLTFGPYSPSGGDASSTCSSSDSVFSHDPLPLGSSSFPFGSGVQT
Procedure: as §1, §2, §3, §4

FGFR3 = FGFR3 (Homo sapiens (Human), UniProt P22607)
Sequence of FGFR3 (P22607 23-806): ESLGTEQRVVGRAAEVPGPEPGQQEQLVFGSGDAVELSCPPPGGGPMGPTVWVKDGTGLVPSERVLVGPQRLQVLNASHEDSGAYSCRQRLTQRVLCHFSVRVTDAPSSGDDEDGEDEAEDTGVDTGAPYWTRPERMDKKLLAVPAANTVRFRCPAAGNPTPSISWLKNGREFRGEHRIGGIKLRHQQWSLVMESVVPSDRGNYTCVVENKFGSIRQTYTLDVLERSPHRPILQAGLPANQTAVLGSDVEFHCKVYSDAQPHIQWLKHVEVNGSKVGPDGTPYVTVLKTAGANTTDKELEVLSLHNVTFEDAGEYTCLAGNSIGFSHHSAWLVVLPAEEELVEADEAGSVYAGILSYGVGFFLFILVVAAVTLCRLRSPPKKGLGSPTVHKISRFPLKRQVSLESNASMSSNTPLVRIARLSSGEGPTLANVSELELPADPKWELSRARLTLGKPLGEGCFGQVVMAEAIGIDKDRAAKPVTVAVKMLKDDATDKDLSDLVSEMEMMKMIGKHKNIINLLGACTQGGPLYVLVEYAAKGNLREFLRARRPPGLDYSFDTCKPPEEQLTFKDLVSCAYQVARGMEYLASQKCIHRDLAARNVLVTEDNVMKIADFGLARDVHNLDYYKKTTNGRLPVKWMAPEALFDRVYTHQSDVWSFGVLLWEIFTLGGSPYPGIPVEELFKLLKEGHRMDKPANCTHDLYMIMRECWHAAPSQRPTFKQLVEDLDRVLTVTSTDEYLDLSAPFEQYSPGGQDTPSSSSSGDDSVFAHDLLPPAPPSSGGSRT
Procedure: as §1, §2, §3, §4

FGFR3 (V555M) = FGFR3 (V555M) (Homo sapiens (Human), UniProt P22607, V555M); conditions: V555M mutant
Sequence of FGFR3 (V555M) (P22607 23-806 V555M): as the sequence (P22607 23-806) above, with V533M counted along it
Procedure: as §1, §2, §3, §4

Sequence of FGFR1 (P11362 22-822): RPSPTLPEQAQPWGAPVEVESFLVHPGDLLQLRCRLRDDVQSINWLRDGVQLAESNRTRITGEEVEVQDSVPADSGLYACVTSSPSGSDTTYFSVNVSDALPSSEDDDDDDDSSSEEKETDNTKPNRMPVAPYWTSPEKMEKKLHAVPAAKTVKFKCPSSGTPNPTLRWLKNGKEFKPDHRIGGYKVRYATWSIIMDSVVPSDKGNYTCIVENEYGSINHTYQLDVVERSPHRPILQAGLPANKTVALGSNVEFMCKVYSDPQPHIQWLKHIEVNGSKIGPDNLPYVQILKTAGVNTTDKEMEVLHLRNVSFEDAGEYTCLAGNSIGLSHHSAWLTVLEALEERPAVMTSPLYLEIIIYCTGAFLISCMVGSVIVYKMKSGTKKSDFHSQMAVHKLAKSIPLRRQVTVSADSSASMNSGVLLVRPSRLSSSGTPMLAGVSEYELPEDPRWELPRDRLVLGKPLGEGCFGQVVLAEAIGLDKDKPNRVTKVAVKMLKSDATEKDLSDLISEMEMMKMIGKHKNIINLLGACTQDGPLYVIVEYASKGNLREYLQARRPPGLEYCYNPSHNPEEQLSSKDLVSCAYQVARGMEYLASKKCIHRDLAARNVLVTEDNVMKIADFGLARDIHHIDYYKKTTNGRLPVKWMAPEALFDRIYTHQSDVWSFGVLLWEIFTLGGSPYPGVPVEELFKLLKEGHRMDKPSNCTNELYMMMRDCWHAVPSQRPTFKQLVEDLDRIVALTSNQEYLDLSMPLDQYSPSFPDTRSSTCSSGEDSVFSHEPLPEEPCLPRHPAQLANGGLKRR

SMILES | Kd (FGFR1) [nM] | Kd (FGFR2) [nM] | Kd (FGFR4) [nM] | Kd (FGFR3) [nM] | Kd (FGFR3 (V555M)) [nM]
Cc1cc(-c2n[nH]c3ccc(O[C@H](C)c4c(Cl)cncc4Cl)cc23)cnc1N1CC2(C1)CN(S(C)(=O)=O)C2 [Example 248, 5-[(1R)-1-(3,5-dichloro-4-pyridyl)ethoxy]-3-[5-methyl-6-(2-methylsulfonyl-2,6-diazaspiro[3.3]heptan-6-yl)-3-pyridyl]-1H-indazole] | 20 to 100 | 20 to 100 | 1 to 20 | 1 to 20 | 1 to 20
C[C@@H](Oc1ccc2[nH]nc(-c3cnc(N4CC5(CNC5)C4)nc3)c2c1)c1c(Cl)cncc1Cl [Example 118, 3-[2-(2,6-diazaspiro[3.3]heptan-2-yl)pyrimidin-5-yl]-5-[(1R)-1-(3,5-dichloro-4-pyridyl)ethoxy]-1H-indazole] | 1 to 20 | 20 to 100 | 1 to 20 | 1 to 20 | 1 to 20
CCOC(=O)N1CC2(C1)CN(c1ccc(-c3n[nH]c4ccc(O[C@H](C)c5c(Cl)cnc(F)c5Cl)cc34)cn1)C2 [Example 196, ethyl 6-[5-[5-[(1R)-1-(3,5-dichloro-2-fluoro-4-pyridyl)ethoxy]-1H-indazol-3-yl]-2-pyridyl]-2,6-diazaspiro[3.3]heptane-2-carboxylate] | 100 to 300 | 100 to 300 | 20 to 100 | 1 to 20 | 1 to 20
C[C@@H](Oc1cc2c(-c3cnc(N4CC5(CCCN(S(C)(=O)=O)C5)C4)c(C#N)c3)n[nH]c2cc1F)c1c(Cl)cncc1Cl [Example 380, 5-[5-[(1R)-1-(3,5-dichloro-4-pyridyl)ethoxy]-6-fluoro-1H-indazol-3-yl]-2-(8-methylsulfonyl-2,8-diazaspiro[3.5]nonan-2-yl)pyridine-3-carbonitrile] | 100 to 300 | > 300 | 1 to 20 | 20 to 100 | 20 to 100
COc1cc2[nH]nc(-c3ccc(N4CC5(C4)CN(S(C)(=O)=O)C5)nc3)c2cc1O[C@H](C)c1c(Cl)cncc1Cl [Example 191, 5-[(1R)-1-(3,5-dichloro-4-pyridyl)ethoxy]-6-methoxy-3-[6-(2-methylsulfonyl-2,6-diazaspiro[3.3]heptan-6-yl)-3-pyridyl]-1H-indazole] | 1 to 20 | 1 to 20 | 1 to 20 | 1 to 20 | 1 to 20
CNC1(C)CN(c2ncc(-c3n[nH]c4cc(Cl)c(O[C@H](C)c5c(Cl)cnc(C)c5Cl)cc34)cc2F)C1 [Example 275, 1-[5-[6-chloro-5-[(1R)-1-(3,5-dichloro-2-methyl-4-pyridyl)ethoxy]-1H-indazol-3-yl]-3-fluoro-2-pyridyl]-N,3-dimethyl-azetidin-3-amine] | 1 to 20 | 20 to 100 | 1 to 20 | 1 to 20 | 1 to 20
Cc1ncc(Cl)c([C@@H](C)Oc2ccc3[nH]nc(-c4cnc(N5CC6(CNC6)C5)nc4)c3c2)c1Cl [Example 179, 3-[2-(2,6-diazaspiro[3.3]heptan-2-yl)pyrimidin-5-yl]-5-[(1R)-1-(3,5-dichloro-2-methyl-4-pyridyl)ethoxy]-1H-indazole] | 20 to 100 | 20 to 100 | 1 to 20 | 1 to 20 | 1 to 20
COC(=O)N1CC2(C1)CN(c1ccc(-c3n[nH]c4ccc(O[C@@H](C)c5c(Cl)cnc(F)c5Cl)cc34)cn1)C2 [Example 198, methyl 6-[5-[5-[(1S)-1-(3,5-dichloro-2-fluoro-4-pyridyl)ethoxy]-1H-indazol-3-yl]-2-pyridyl]-2,6-diazaspiro[3.3]heptane-2-carboxylate] | > 300 | > 300 | > 300 | 100 to 300 | 20 to 100
COc1cc2[nH]nc(-c3cnc(N4CC5(C4)CN(S(C)(=O)=O)C5)c(C#N)c3)c2cc1O[C@H](C)c1c(Cl)cncc1Cl [Example 342, 5-[5-[(1R)-1-(3,5-dichloro-4-pyridyl)ethoxy]-6-methoxy-1H-indazol-3-yl]-2-(2-methylsulfonyl-2,6-diazaspiro[3.3]heptan-6-yl)pyridine-3-carbonitrile] | 20 to 100 | 1 to 20 | 1 to 20 | 1 to 20 | 1 to 20
COc1cc2[nH]nc(-c3cnc(N4CC5(C4)CN(S(C)(=O)=O)C5)c(F)c3)c2cc1O[C@H](C)c1c(Cl)cncc1Cl [Example 242, 5-[(1R)-1-(3,5-dichloro-4-pyridyl)ethoxy]-3-[5-fluoro-6-(2-methylsulfonyl-2,6-diazaspiro[3.3]heptan-6-yl)-3-pyridyl]-6-methoxy-1H-indazole] | 1 to 20 | 1 to 20 | 1 to 20 | 1 to 20 | 1 to 20
Cc1ncc(Cl)c([C@@H](C)Oc2cc3c(-c4cnc(N5CCC5)c(F)c4)n[nH]c3cc2Cl)c1Cl [Example 274, 3-[6-(azetidin-1-yl)-5-fluoro-3-pyridyl]-6-chloro-5-[(1R)-1-(3,5-dichloro-2-methyl-4-pyridyl)ethoxy]-1H-indazole] | 100 to 300 | 100 to 300 | 20 to 100 | 20 to 100 | 1 to 20
C[C@@H](Oc1ccc2[nH]nc(-c3cnc(Cl)nc3)c2c1)c1c(Cl)cncc1Cl [Example 59, 3-(2-Chloropyrimidin-5-yl)-5-[(1R)-1-(3,5-dichloro-4-pyridyl)ethoxy]-1H-indazole] | 20 to 100 | 100 to 300 | 20 to 100 | 20 to 100 | 20 to 100
CCOC(=O)N1CC2(C1)CN(c1ccc(-c3n[nH]c4ccc(O[C@@H](C)c5c(Cl)cnc(F)c5Cl)cc34)cn1)C2 [Example 193, Ethyl 6-[5-[5-[(1S)-1-(3,5-dichloro-2-fluoro-4-pyridyl)ethoxy]-1H-indazol-3-yl]-2-pyridyl]-2,6-diazaspiro[3.3]heptane-2-carboxylate] | > 300 | > 300 | > 300 | > 300 | 100 to 300
Cc1cnnc(C)c1[C@@H](C)Oc1ccc2[nH]nc(-c3ccc(N4CCN5CCC[C@H]5C4)nc3)c2c1 [Example 174, 3-[6-[(8aS)-3,4,6,7,8,8a-hexahydro-1H-pyrrolo[1,2-a]pyrazin-2-yl]-3-pyridyl]-5-[(1R)-1-(3,5-dimethylpyridazin-4-yl)ethoxy]-1H-indazole] | 1 to 20 | 1 to 20 | 1 to 20 | 1 to 20 | 1 to 20
Cc1ncc(Cl)c([C@@H](C)Oc2ccc3[nH]nc(-c4ccc(N5CC6(CNC6)C5)nc4)c3c2)c1Cl [Example 177, 3-[6-(2,6-diazaspiro[3.3]heptan-2-yl)-3-pyridyl]-5-[(1R)-1-(3,5-dichloro-2-methyl-4-pyridyl)ethoxy]-1H-indazole] | 1 to 20 | 20 to 100 | 1 to 20 | 1 to 20 | 1 to 20
C[C@@H](Oc1ccc2[nH]nc(-c3ccc(N4CCN5C[C@H](O)C[C@H]5C4)nc3)c2c1)c1c(Cl)cncc1Cl [Example 178, (7R,8aS)-2-[5-[5-[(1R)-1-(3,5-dichloro-4-pyridyl)ethoxy]-1H-indazol-3-yl]-2-pyridyl]-3,4,6,7,8,8a-hexahydro-1H-pyrrolo[1,2-a]pyrazin-7-ol] | 1 to 20 | 1 to 20 | 1 to 20 | 1 to 20 | 1 to 20
Cc1cnnc(C)c1[C@H](C)Oc1ccc2[nH]nc(-c3cnc(N4CC5(CCS(=O)(=O)C5)C4)nc3)c2c1 [Example 147, 2-[5-[5-[(1S)-1-(3,5-dimethylpyridazin-4-yl)ethoxy]-1H-indazol-3-yl]pyrimidin-2-yl]-6λ^6-thia-2-azaspiro[3.4]octane 6,6-dioxide] | > 300 | > 300 | > 300 | > 300 | > 300
COC(=O)N1CC2(C1)CN(c1ccc(-c3n[nH]c4ccc(O[C@@H](C)c5c(C)cnnc5C)cc34)cn1)C2 [Example 153, methyl 6-[5-[5-[(1S)-1-(3,5-dimethylpyridazin-4-yl)ethoxy]-1H-indazol-3-yl]-2-pyridyl]-2,6-diazaspiro[3.3]heptane-2-carboxylate] | > 300 | 100 to 300 | 100 to 300 | 20 to 100 | 1 to 20
COc1cc2[nH]nc(-c3cnc(N4CC(O)C4)c(C#N)c3)c2cc1O[C@H](C)c1c(C)cnnc1C [Example 320, (R)-5-(5-(1-(3,5-dimethylpyridazin-4-yl)ethoxy)-6-methoxy-1H-indazol-3-yl)-2-(3-hydroxyazetidin-1-yl)nicotinonitrile] | 20 to 100 | 20 to 100 | 1 to 20 | 20 to 100 | 1 to 20
C[C@@H](Oc1ccc2[nH]nc(-c3cnc(N4CC5(CCNCC5)C4)nc3)c2c1)c1c(Cl)cncc1Cl [Example 133, 3-[2-(2,7-diazaspiro[3.5]nonan-2-yl)pyrimidin-5-yl]-5-[(1R)-1-(3,5-dichloro-4-pyridyl)ethoxy]-1H-indazole] | 1 to 20 | 1 to 20 | 1 to 20 | 1 to 20 | 1 to 20

— patent US20240109865A1, “INDAZOLE COMPOUNDS AS KINASE INHIBITORS” (TYRA BIOSCIENCES, INC., priority 2020, published 2024)
